The values that follow come from patent US20230265116A1, “DEGRADATION OF (EGFR) BY CONJUGATION OF EGFR INHIBITORS WITH E3 LIGASE LIGAND AND METHODS OF USE” (BEIGENE, LTD., priority 2020, published 2023).

Like-named read-outs stand apart in the source and are kept apart here.

In test [1] the test system is EGFR Del19/T790M/C797S (H1975-clone #28). Put plainly: EGFR degradation HTRF assay, H1975-clone #28 DTC cells. In kind it is cell-based. Summed up: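 Engineered H1975 lines (lentiviral mutant EGFR, endogenous EGFR knocked out, single-clone verified); 16h compound, 37° C., 5% CO2, 0.2% DMSO; 8-point 5-fold series from 10 uM final. HTRF lysate read; % degradation vs DMSO, four-parameter fit → DC50, Dmax.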
Background: Time-resolved FRET reads energy transfer from a long-lived donor to a nearby acceptor.

Test [2] deals with T1, EGFR L858R/T790M/C797S (BaF3-LTC cells) (Homo sapiens, UniProt P00533, C797S/L858R/T790M).
T1 construct: expressed in transfected cells; host or cells: BaF3
T1 sequence (P00533 25-1210 T790M/C797S/L858R): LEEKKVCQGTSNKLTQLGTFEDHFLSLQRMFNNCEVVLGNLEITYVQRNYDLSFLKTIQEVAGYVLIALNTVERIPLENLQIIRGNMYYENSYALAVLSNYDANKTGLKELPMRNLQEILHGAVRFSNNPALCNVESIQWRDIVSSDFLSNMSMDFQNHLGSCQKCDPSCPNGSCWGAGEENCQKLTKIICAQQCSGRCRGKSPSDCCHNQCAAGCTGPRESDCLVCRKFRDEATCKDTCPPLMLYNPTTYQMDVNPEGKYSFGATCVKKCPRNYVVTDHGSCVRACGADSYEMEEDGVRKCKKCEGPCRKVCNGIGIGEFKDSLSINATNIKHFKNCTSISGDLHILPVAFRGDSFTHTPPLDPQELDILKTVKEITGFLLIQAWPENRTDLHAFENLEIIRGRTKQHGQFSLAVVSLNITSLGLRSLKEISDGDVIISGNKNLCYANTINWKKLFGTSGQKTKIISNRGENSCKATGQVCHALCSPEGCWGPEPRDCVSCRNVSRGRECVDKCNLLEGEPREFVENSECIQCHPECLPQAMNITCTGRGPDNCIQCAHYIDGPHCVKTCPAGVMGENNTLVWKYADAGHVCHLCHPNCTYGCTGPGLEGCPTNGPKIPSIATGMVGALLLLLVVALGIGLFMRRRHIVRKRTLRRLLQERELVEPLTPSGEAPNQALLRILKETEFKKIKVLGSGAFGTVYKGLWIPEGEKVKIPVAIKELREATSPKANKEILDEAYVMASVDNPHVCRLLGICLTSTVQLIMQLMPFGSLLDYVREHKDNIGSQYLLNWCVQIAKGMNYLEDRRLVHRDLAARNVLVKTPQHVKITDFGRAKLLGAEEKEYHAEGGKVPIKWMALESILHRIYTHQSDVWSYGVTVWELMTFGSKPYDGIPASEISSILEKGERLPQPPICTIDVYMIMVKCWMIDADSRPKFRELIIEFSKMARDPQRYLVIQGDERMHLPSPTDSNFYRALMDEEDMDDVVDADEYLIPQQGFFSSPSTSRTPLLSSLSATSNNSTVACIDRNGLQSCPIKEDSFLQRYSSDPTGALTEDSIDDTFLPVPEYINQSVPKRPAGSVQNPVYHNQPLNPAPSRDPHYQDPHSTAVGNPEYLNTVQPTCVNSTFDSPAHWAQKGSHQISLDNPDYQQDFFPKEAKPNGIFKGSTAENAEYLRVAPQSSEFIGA
The test is described as follows: EGFR degradation HTRF assay, BaF3-LTC cells. In kind it is cell-based. Summed up: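 EGFR remaining after a 16 h, 37 °C exposure (8 doses, 5-fold steps from 10 uM final, 0.2% DMSO) was quantified by HTRF antibodies in cell lysate. Percent inhibition relative to DMSO control was fitted by four-parameter logistic to give DC50; Dmax denotes maximal degradation.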

The mark [3] stands for this setting: H1975 # 28 DTC cells; maximum percentage of inhibition (degradation).
Setting [4] is: read-out: DC50(nM) H1975 # 28 DTC; H1975 # 28 DTC cells; EGFR degradation, IC50 (DC50) from curve fit.
[5] abbreviates: BaF3-LTC cells; EGFR degradation, IC50 (DC50) from curve fit; read-out: DC50(nM) BaF3-LTC.
Setting [6] is: read-out: DC50(nM) BaF3-LTC; BaF3-LTC cells; EGFR degradation, IC50 (DC50) from curve fit.
Where [7] appears, read: read-out: Dmax (%) BaF3-LTC, BaF3-LTC cells; maximum percentage of inhibition (degradation).
Where [8] appears, read: H1975 # 28 DTC cells; EGFR degradation, IC50 (DC50) from curve fit; read-out: DC50(nM) H1975 # 28 DTC.
[9] abbreviates: BaF3-LTC cells; maximum percentage of inhibition (degradation); read-out: Dmax (%) BaF3-LTC.

On to `CCOc1cc(N2CCC(N3CCN(CCc4cccc5c4oc(=O)n5C4CCC(=O)NC4=O)CC3)CC2)c(CC)cc1Nc1ncc(Br)c(Nc2ccc3nc(CC)ncc3c2P(C)(C)=O)n1` (stereo not drawn) [Example 563, 3-(7-(2-(4-(1-(4-((5-bromo-4-((5-(dimethylphosphoryl)-2-ethylquinazolin-6-yl)amino)pyrimidin-2-yl)amino)-5-ethoxy-2-ethylphenyl)piperidin-4-yl)piperazin-1-yl)ethyl)-2-oxobenzo[d]oxazol-3(2H)-yl)piperidine-2,6-dione], for which, in test [1] (setting [3]), the “Dmax (%) H1975 # 28 DTC” value is 81.88%. For the same compound, the 50% degradation concentration (DC50) (as a rule, the concentration giving 50% degradation) in test [1] (setting [4]) turned out to be 0.732 nM; in test [2] (setting [5]), 7.69 nM.
For the compound `CCOc1cc(N2CCC(N3CCN(CCCc4cc(F)cc5c4oc(=O)n5C4CCC(=O)NC4=O)CC3)CC2)c(CC)cc1Nc1ncc(Br)c(Nc2ccc3nc(CC)ncc3c2P(C)(C)=O)n1` (stereo not drawn) [Example 564, 3-(7-(3-(4-(1-(4-((5-bromo-4-((5-(dimethylphosphoryl)-2-ethylquinazolin-6-yl)amino)pyrimidin-2-yl)amino)-5-ethoxy-2-ethylphenyl)piperidin-4-yl)piperazin-1-yl)propyl)-5-fluoro-2-oxobenzo[d]oxazol-3(2H)-yl)piperidine-2,6-dione], the “Dmax (%) H1975 # 28 DTC” value in test [1] (setting [3]) is recorded as 81.87%. Besides, the 50% degradation concentration (DC50) in test [1] (setting [4]) came to 1.04 nM; in test [2] (setting [6]), 7.34 nM. Also, in test [2] (setting [7]), the Dmax (in general, the greatest extent of degradation seen) came out at 93.9%.
As for `CCOc1cc(N2CCC(N3CCN(CCc4cc5oc(=O)n(C6CCC(=O)NC6=O)c5cc4F)CC3)CC2)c(CC)cc1Nc1ncc(Br)c(Nc2ccc3nc(CC)ncc3c2P(C)(C)=O)n1` (stereo not drawn) [Example 565, 3-(6-(2-(4-(1-(4-((5-bromo-4-((5-(dimethylphosphoryl)-2-ethylquinazolin-6-yl)amino)pyrimidin-2-yl)amino)-5-ethoxy-2-ethylphenyl)piperidin-4-yl)piperazin-1-yl)ethyl)-5-fluoro-2-oxobenzo[d]oxazol-3(2H)-yl)piperidine-2,6-dione], in test [1] (setting [3]), the “Dmax (%) H1975 # 28 DTC” value is 74.32%. The DC50 in test [1] (setting [4]) worked out at 0.626 nM; in test [2] (setting [6]), 3.92 nM. Further, the Dmax in test [2] (setting [7]) worked out at 93.2%.
As for `CCOc1cc(N2CCC(N3CCN(CC4CN(c5cccc6c5oc(=O)n6C5CCC(=O)NC5=O)C4)CC3)CC2)c(CC)cc1Nc1ncc(Br)c(Nc2ccc3nc(CC)ncc3c2P(C)(C)=O)n1` (stereo not drawn) [Example 566, 3-(7-(3-((4-(1-(4-((5-bromo-4-((5-(dimethylphosphoryl)-2-ethylquinazolin-6-yl)amino)pyrimidin-2-yl)amino)-5-ethoxy-2-ethylphenyl)piperidin-4-yl)piperazin-1-yl)methyl)azetidin-1-yl)-2-oxobenzo[d]oxazol-3(2H)-yl)piperidine-2,6-dione], the “Dmax (%) H1975 # 28 DTC” value in test [1] (setting [3]) is listed as 84.02%. In addition, the DC50 was 0.616 nM in test [1] (setting [4]) and 5.25 nM in test [2] (setting [5]).
For the compound `CCOc1cc(N2CCC(N3CCN(CCCc4cc(F)c([C@H]5CCC(=O)NC5=O)c(F)c4)CC3)CC2)c(CC)cc1Nc1ncc(Br)c(Nc2cc(F)c3nc(CC)ccc3c2P(C)(C)=O)n1` [Example 567, (R)-3-(4-(3-(4-(1-(4-((5-bromo-4-((5-(dimethylphosphoryl)-2-ethyl-8-fluoroquinolin-6-yl)amino)pyrimidin-2-yl)amino)-5-ethoxy-2-ethylphenyl)piperidin-4-yl)piperazin-1-yl)propyl)-2,6-difluorophenyl)piperidine-2,6-dione], the DC50 in test [1] (setting [8]) stood at 3.01 nM; in test [2] (setting [5]) it was 13.2 nM. The “Dmax (%) H1975 # 28 DTC” value in test [1] (setting [3]) turned out to be 56.23%. In addition, the greatest degradation seen (Dmax) in test [2] (setting [9]) stood at 92%.
Taken in the same sequence, the figures for `CCc1ccc2c(P(C)(C)=O)c(Nc3nc(Nc4cc(C)c(N5CCC(N6CCN(CCc7ccc8c(c7)oc(=O)n8C7CCC(=O)NC7=O)CC6)CC5)cc4OC4CC4)ncc3Br)ccc2n1` (stereo not drawn) [Example 568, 3-(6-(2-(4-(1-(4-((5-bromo-4-((5-(dimethylphosphoryl)-2-ethylquinolin-6-yl)amino)pyrimidin-2-yl)amino)-5-cyclopropoxy-2-methylphenyl)piperidin-4-yl)piperazin-1-yl)ethyl)-2-oxobenzo[d]oxazol-3(2H)-yl)piperidine-2,6-dione] were 2.38 nM, 10.4 nM, 91.62% and 87%.
For `[2H]C1([2H])CC([2H])(c2c(F)cc(CCN3CCN(C4CCN(c5cc(OCC)c(Nc6ncc(Br)c(Nc7ccc8nc(C)ccc8c7P(C)(C)=O)n6)cc5CC)CC4)CC3)cc2F)C(=O)NC1=O` (stereo not drawn) [Example 570, 3-(4-(2-(4-(1-(4-((5-bromo-4-((5-(dimethylphosphoryl)-2-methylquinolin-6-yl)amino)pyrimidin-2-yl)amino)-5-ethoxy-2-ethylphenyl)piperidin-4-yl)piperazin-1-yl)ethyl)-2,6-difluorophenyl)piperidine-2,6-dione-3,5,5-d3], the values for the DC50 in test [1] (setting [8]) and in test [2] (setting [5]) were 3.03 nM and 20.5 nM, respectively. The “Dmax (%) H1975 # 28 DTC” value in test [1] (setting [3]) was found to be 76.54%.
For `CCc1cc(Nc2ncc(Br)c(Nc3ccc4c(=O)n(C5CC5)ncc4c3P(C)(C)=O)n2)c(OC)cc1N1CCC(N2CCN(CCC3CCN(c4cc(F)c([C@H]5CCC(=O)NC5=O)c(F)c4)CC3)CC2)CC1` [Example 578, (R)-3-(4-(4-(2-(4-(1-(4-((5-bromo-4-((2-cyclopropyl-5-(dimethylphosphoryl)-1-oxo-1,2-dihydrophthalazin-6-yl)amino)pyrimidin-2-yl)amino)-2-ethyl-5-methoxyphenyl)piperidin-4-yl)piperazin-1-yl)ethyl)piperidin-1-yl)-2,6-difluorophenyl)piperidine-2,6-dione], the DC50 in test [1] (setting [8]) turned out to be 3.11 nM; in test [2] (setting [5]), 12.2 nM. In addition, the “Dmax (%) H1975 # 28 DTC” value in test [1] (setting [3]) amounted to 87.5%. In addition, in test [2] (setting [9]), the Dmax was determined as 96.5%.
Taken in the same sequence, the figures for `CCOc1cc(N2CCC(N3CCN(CC4CCN(c5cccc6c5oc(=O)n6C5CCC(=O)NC5=O)CC4)CC3)CC2)c(CC)cc1Nc1ncc(Br)c(Nc2ccc3nc(CC)ccc3c2P(C)(C)=O)n1` (stereo not drawn) [Example 581, 3-(7-(4-((4-(1-(4-((5-bromo-4-((5-(dimethylphosphoryl)-2-ethylquinolin-6-yl)amino)pyrimidin-2-yl)amino)-5-ethoxy-2-ethylphenyl)piperidin-4-yl)piperazin-1-yl)methyl)piperidin-1-yl)-2-oxobenzo[d]oxazol-3(2H)-yl)piperidine-2,6-dione] were 1.36 nM, 6.9 nM, 72.5% and 88.5%.
Taken in the same sequence, the figures for `CCOc1cc(N2CCC(N3CCN(CC4CCN(c5cccc6c5oc(=O)n6C5CCC(=O)NC5=O)CC4)CC3)CC2)c(CC)cc1Nc1ncc(Br)c(Nc2ccc3c(=O)n(CC)ncc3c2P(C)(C)=O)n1` (stereo not drawn) [Example 582, 3-(7-(4-((4-(1-(4-((5-bromo-4-((5-(dimethylphosphoryl)-2-ethyl-1-oxo-1,2-dihydrophthalazin-6-yl)amino)pyrimidin-2-yl)amino)-5-ethoxy-2-ethylphenyl)piperidin-4-yl)piperazin-1-yl)methyl)piperidin-1-yl)-2-oxobenzo[d]oxazol-3(2H)-yl)piperidine-2,6-dione] were 1.06 nM, 8.54 nM, 79.64% and 93.1%.
Consider `CCc1ccc2c(P(C)(C)=O)c(Nc3nc(Nc4cc(CC)c(N5CCC(N6CCC(CCc7cc(F)c(C8CCC(=O)NC8=O)c(F)c7)CC6)CC5)cc4OC)ncc3Br)ccc2n1` (stereo not drawn) [Example 583, 3-(4-(2-(1′-(4-((5-bromo-4-((5-(dimethylphosphoryl)-2-ethylquinolin-6-yl)amino)pyrimidin-2-yl)amino)-2-ethyl-5-methoxyphenyl)-[1,4′-bipiperidin]-4-yl)ethyl)-2,6-difluorophenyl)piperidine-2,6-dione], for which the 50% degradation concentration (DC50) in test [1] (setting [8]) came to 2.7 nM; in test [2] (setting [5]), 17 nM. In addition, the “Dmax (%) H1975 # 28 DTC” value in test [1] (setting [3]) is 76.91%. For the same compound, the Dmax in test [2] (setting [9]) was 92.9%.
Turning to `CCc1ccc2c(P(C)(C)=O)c(Nc3nc(Nc4cc(CC)c(N5CCC(N6CCN(CCc7cccc8c7n(C)c(=O)n8C7CCC(=O)NC7=O)CC6)CC5)cc4OC4CC4)ncc3Br)ccc2n1` (stereo not drawn) [Example 585, 3-(4-(2-(4-(1-(4-((5-bromo-4-((5-(dimethylphosphoryl)-2-ethylquinolin-6-yl)amino)pyrimidin-2-yl)amino)-5-cyclopropoxy-2-ethylphenyl)piperidin-4-yl)piperazin-1-yl)ethyl)-3-methyl-2-oxo-2,3-dihydro-1H-benzo[d]imidazol-1-yl)piperidine-2,6-dione], the DC50 in test [1] (setting [8]) came out at 0.695 nM; in test [2] (setting [5]), 2.5 nM. Moreover, in test [1] (setting [3]), the “Dmax (%) H1975 # 28 DTC” value is 79.08%. The maximal degradation (Dmax) in test [2] (setting [9]) was found to be 96.2%.
